In US4104384A, “1-(2'-Aroyl eth-1'yl) 2-(4"-acetamido piperazine-1"yl methyl) benzimidazoles and their therapeutical applications” (priority 1975, dated 1978):

What was measured:
[1] = test system: bronchoconstriction caused by acetylcholine; assay: Anticholinergic and antibronchoconstrictive: bronchoconstriction by intravenous acetylcholine, Konzett's method; assay type: in vivo; details: Cavia porcellus, guinea-pig, read-out: Percentage inhibition of the bronchoconstriction
Text: Injected intravenously or intraduodenally, the compounds of formula (I) are capable of opposing bronchoconstriction caused in a guinea-pig by intravenous injection of acetylcholine and evaluated by Konzett's method.

[2] = test system: Shay's ulcer; assay: Anti-ulcerous properties: ulceration caused by ligature of the pylorus (Shay's ulcers), intraduodenal; assay type: in vivo; details: rat, read-out: Percentage reduction of Shay's ulcer; for inhibition in vivo at 10 mg/kg: 10 mg/kg/i.d.; for inhibition in vivo at 15.5 mg/kg: 15.5 mg/kg/i.d.; for inhibition in vivo at 14.8 mg/kg: 14.8 mg/kg/i.d.; for inhibition in vivo at 7.3 mg/kg: 7.3 mg/kg/i.d.
Text: Furthermore, the compounds of formula (I) administered intraduodenally reduce the ulceration area caused by ligature of the pylorus of a rat (Shay's ulcers).

[3] = test system: gastric secretion; assay: Gastric antisecretory properties: gastric secretion after Shay ligature, intraduodenal; assay type: in vivo; details: rat, read-out: Reduction of volume of gastric secretion; for inhibition in vivo at 1.6 mg/kg: 1.6 mg/kg/i.d.; for inhibition in vivo at 1.5 mg/kg: 1.5 mg/kg/i.d.; for inhibition in vivo at 10 mg/kg: 10 mg/kg/i.d.
Text: Administered intraduodenally to a rat, the compounds of formula (I) are capable of reducing gastric secretion measured after Shay ligature.

[4] = test system: stress ulcers; assay: Anti-ulcerous properties: ulcerations in rat under stress for 7 hours, oral; assay type: in vivo; details: for inhibition in vivo at 7.7 mg/kg: 7.7 mg/kg/p.o.; for inhibition in vivo at 7.4 mg/kg: 7.4 mg/kg/p.o.; for inhibition in vivo at 20 mg/kg: 20 mg/kg/p.o.
[5] = test system: painful stretchings; assay: Analgesic: painful stretchings following intraperitoneal injection of acetic acid; assay type: in vivo; details: po, mouse, read-out: Percentage diminution painful stretchings; for inhibition in vivo at 40 mg/kg: 40 mg/kg/p.o.; for inhibition in vivo at 50 mg/kg: 50 mg/kg/p.o.
Text: The compounds of formula (I), administered orally to a mouse, are capable of reducing the number of painful stretchings following intraperitioneal injection of acetic acid.

[6] = test system: sub-plantar oedema; assay: Anti-inflammatory: sub-plantar oedema caused by carragenine; assay type: in vivo; details: po, rat, read-out: Percentage reduction of sub-plantar oedema; for inhibition in vivo at 50 mg/kg: 50 mg/kg/p.o.
[7] = Acute toxicity, lethal dose 50; details: mouse, in vivo, po, read-out: Lethal dose 50 (mouse) / DL 50 (mouse) (converted)
[8] = test system: jejunal ansa of a rabbit; assay: Spasmolytic in vivo: contractions of the jejunal ansa caused by electric stimulation
Text: The compounds of formula (I), administered intraduodenally are capable of reducing the contractions of the jejunal ansa of a rabbit, caused by electric stimulation.

[9] = test system: arterial pressure; assay: Anti-hypertensive: arterial pressure in genetically hyperstressed vigil rats (S.H.R.); assay type: in vivo, rat; details: 150 mg/kg/p.o., 4 hours
Description: The compounds of formula (I) are capable, 4 hours after their oral injection, of bringing the arterial pressure down to normal in genetically hyperstressed vigil rats (S.H.R.).

[10] = po, read-out: Percentage reduction of stress ulcers

## O=C(CCn1c(CN2CCN(CC(=O)N3CCCC3)CC2)nc2ccccc21)c1ccccc1 [73 0458, 1-(2'-benzoyleth-1' yl) 2-(4"-pyrrolidinocarbonylmethylpiperazine-1" ylmethyl) benzimidazole]
[1]; intraduodenal, i.d., 100 mg/kg
  inhibition in vivo at 100 mg/kg: 67%
[2]
  inhibition in vivo at 10 mg/kg: 90%
[3]; Rat2, intraduodenal, 2 mg/kg/i.d.
  inhibition in vivo at 2 mg/kg: 19%
[4]; po, 5 mg/kg/p.o., read-out: Percentage reduction of stress ulcers
  inhibition in vivo at 5 mg/kg: 77%

## CCNC(=O)CN1CCN(Cc2nc3ccccc3n2CCC(=O)c2ccccc2)CC1 [74 0144]
[1]; iv, i.v.
  inhibition in vivo at 4 mg/kg: 100%
[5]
  inhibition in vivo at 40 mg/kg: 92%
[6]; 30 mg/kg/p.o.
  inhibition in vivo at 30 mg/kg: 35%
[7]
  LD50: 310 mg/kg
[2]
  inhibition in vivo at 15.5 mg/kg: 98%
[8]; 15.5 mg/kg/i.d.
  Diminution of contractions of the jejunum for more than an hour: 43%
[3]; intraduodenal
  inhibition in vivo at 1.6 mg/kg: 85%
[4]; [10]
  inhibition in vivo at 7.7 mg/kg: 99%

## CNC(=O)CN1CCN(Cc2nc3ccccc3n2CCC(=O)c2ccccc2)CC1 [74 0145]
[1]; iv, i.v., 0.5 mg/kg
  inhibition in vivo at 0.5 mg/kg: 75%
[5]; 10 mg/kg/p.o.
  inhibition in vivo at 10 mg/kg: 70%
[6]; 10 mg/kg/p.o.
  inhibition in vivo at 10 mg/kg: 40%
[7]
  LD50: 180 mg/kg
[2]
  inhibition in vivo at 15.5 mg/kg: 100%
[3]; intraduodenal
  inhibition in vivo at 1.6 mg/kg: 88%
[4]; [10]
  inhibition in vivo at 7.7 mg/kg: 100%

## CCCNC(=O)CN1CCN(Cc2nc3ccccc3n2CCC(=O)c2ccccc2)CC1 [74 0159]
[1]; iv, i.v.
  inhibition in vivo at 5 mg/kg: 100%
[5]
  inhibition in vivo at 50 mg/kg: 40%
[6]
  inhibition in vivo at 50 mg/kg: 57%
[7]
  LD50: 1250 mg/kg
[2]; 15.1 mg/kg/i.d.
  inhibition in vivo at 15.1 mg/kg: 100%
[3]; intraduodenal
  inhibition in vivo at 1.5 mg/kg: 77%
[4]; po, 7.5 mg/kg/p.o., read-out: Percentage reduction of stress ulcers
  inhibition in vivo at 7.5 mg/kg: 100%
[4]; po, 7.6 mg/kg/p.o., read-out: Percentage reduction of stress ulcers
  inhibition in vivo at 7.6 mg/kg: 100%

## O=C(CCn1c(CN2CCN(CC(=O)N3CCOCC3)CC2)nc2ccccc21)c1ccccc1 [74 0160]
[6]
  inhibition in vivo at 50 mg/kg: 50%
[7]
  LD50: 1700 mg/kg
[2]; 15 mg/kg/i.d.
  inhibition in vivo at 15 mg/kg: 99%
[3]; intraduodenal
  inhibition in vivo at 1.5 mg/kg: 45%
[4]; po, 6 mg/kg/p.o., read-out: Percentage reduction of stress ulcers
  inhibition in vivo at 6 mg/kg: 76%

## CN(C)C(=O)CN1CCN(Cc2nc3ccccc3n2CCC(=O)c2ccccc2)CC1 [74 0180]
[1]; iv, i.v.
  inhibition in vivo at 5 mg/kg: 100%
[5]
  inhibition in vivo at 50 mg/kg: 53%
[6]
  inhibition in vivo at 50 mg/kg: 47%
[7]
  LD50: 716 mg/kg
[2]; 7.7 mg/kg/i.d.
  inhibition in vivo at 7.7 mg/kg: 94%
[8]; 15.4 mg/kg/i.d.
  Diminution of contractions of the jejunum for more than an hour: 50%
[3]; intraduodenal
  inhibition in vivo at 1.5 mg/kg: 86%
[4]; [10]
  inhibition in vivo at 7.7 mg/kg: 100%

## CCN(CC)C(=O)CN1CCN(Cc2nc3ccccc3n2CCC(=O)c2ccccc2)CC1 [74 0184]
[1]; iv, i.v.
  inhibition in vivo at 4 mg/kg: 100%
[5]
  inhibition in vivo at 50 mg/kg: 63%
[6]
  inhibition in vivo at 50 mg/kg: 65%
[7]
  LD50: 1300 mg/kg
[2]; 7.4 mg/kg/i.d.
  inhibition in vivo at 7.4 mg/kg: 100%
[8]; 14.9 mg/kg/i.d.
  Diminution of contractions of the jejunum for more than an hour: 39%
[3]; intraduodenal
  inhibition in vivo at 1.5 mg/kg: 77%
[4]; [10]
  inhibition in vivo at 7.4 mg/kg: 100%

## CCCCNC(=O)CN1CCN(Cc2nc3ccccc3n2CCC(=O)c2ccccc2)CC1 [74 0186]
[1]; iv, i.v., 2 mg/kg
  inhibition in vivo at 2 mg/kg: 100%
[5]
  inhibition in vivo at 40 mg/kg: 77%
[6]; 40 mg/kg/p.o.
  inhibition in vivo at 40 mg/kg: 48%
[7]
  LD50: 360 mg/kg
[2]
  inhibition in vivo at 14.8 mg/kg: 75%
[3]; intraduodenal
  inhibition in vivo at 1.5 mg/kg: 67%
[4]; [10]
  inhibition in vivo at 7.4 mg/kg: 98%

## CC(C)CNC(=O)CN1CCN(Cc2nc3ccccc3n2CCC(=O)c2ccccc2)CC1 [74 0187]
[1]; iv, i.v.
  inhibition in vivo at 5 mg/kg: 100%
[5]
  inhibition in vivo at 50 mg/kg: 42%
[6]
  inhibition in vivo at 50 mg/kg: 47%
[7]
  LD50: 1600 mg/kg
[2]
  inhibition in vivo at 14.8 mg/kg: 94%
[3]; intraduodenal
  inhibition in vivo at 1.5 mg/kg: 78%
[4]; [10]
  inhibition in vivo at 7.4 mg/kg: 100%

## O=C(CCn1c(CN2CCN(CC(=O)N3CCCCCC3)CC2)nc2ccccc21)c1ccccc1 [74 0195]
[1]; intraduodenal, i.d., 25 mg/kg
  inhibition in vivo at 25 mg/kg: 60%
[5]
  inhibition in vivo at 50 mg/kg: 53%
[7]
  LD50: > 2000 mg/kg
[2]; 14.2 mg/kg/i.d.
  inhibition in vivo at 14.2 mg/kg: 86%
[8]; 14.2 mg/kg/i.d.
  Diminution of contractions of the jejunum of a rabbit: 30%
[4]; po, 7.1 mg/kg/p.o., read-out: Percentage reduction of stress ulcers
  inhibition in vivo at 7.1 mg/kg: 59%

## CCCN(CCC)C(=O)CN1CCN(Cc2nc3ccccc3n2CCC(=O)c2ccccc2)CC1 [74 0196]
[7]
  LD50: 2100 mg/kg
[2]
  inhibition in vivo at 7.3 mg/kg: 90%
[3]; intraduodenal
  inhibition in vivo at 1.5 mg/kg: 74%
[4]; po, 7.3 mg/kg/p.o., read-out: Percentage reduction of stress ulcers
  inhibition in vivo at 7.3 mg/kg: 88%

## CC(C)N(C(=O)CN1CCN(Cc2nc3ccccc3n2CCC(=O)c2ccccc2)CC1)C(C)C [74 0453]
[1]; iv, i.v., 2.5 mg/kg
  inhibition in vivo at 2.5 mg/kg: 100%
[7]
  LD50: 1000 mg/kg
[2]
  inhibition in vivo at 7.3 mg/kg: 82%

## CC(C)NC(=O)CN1CCN(Cc2nc3ccccc3n2CCC(=O)c2ccc([N+](=O)[O-])cc2)CC1 [74 0747]
[7]
  LD50: 2200 mg/kg
[9]
  arterial pressure brought down to normal: 4 animals out of 7

## O=C(CN1CCN(Cc2nc3ccccc3n2CCC(=O)c2ccccc2)CC1)NC1CCCC1 [74 0751]
[7]
  LD50: 1100 mg/kg
[2]
  inhibition in vivo at 10 mg/kg: 89%
[3]; intraduodenal, 4.5 mg/kg/i.d.
  inhibition in vivo at 4.5 mg/kg: 69%
[4]; oral, read-out: DE 50, stress ulcers
  ED50: 11 mg/kg

## Cc1ccc(C(=O)CCn2c(CN3CCN(CC(=O)NC(C)C)CC3)nc3ccccc32)cc1 [75 0009]
[7]
  LD50: 1800 mg/kg
[2]; 20 mg/kg/i.d.
  inhibition in vivo at 20 mg/kg: 56%
[3]; intraduodenal
  inhibition in vivo at 10 mg/kg: 62%
[4]; [10]
  inhibition in vivo at 20 mg/kg: 90%

## COc1cccc(C(=O)CCn2c(CN3CCN(CC(=O)NC(C)C)CC3)nc3ccccc32)c1 [75 0010]
[7]
  LD50: 1200 mg/kg
[2]; 40 mg/kg/i.d.
  inhibition in vivo at 40 mg/kg: 86%
[3]; intraduodenal, 25 mg/kg/i.d.
  inhibition in vivo at 25 mg/kg: 82%
[4]; [10]
  inhibition in vivo at 20 mg/kg: 77%

## CC(C)NC(=O)CN1CCN(Cc2nc3ccccc3n2CCC(=O)c2ccc(Cl)cc2)CC1 [75 0012]
[7]
  LD50: 1300 mg/kg
[2]
  inhibition in vivo at 10 mg/kg: 73%
[3]; intraduodenal
  inhibition in vivo at 10 mg/kg: 63%
[4]; [10]
  inhibition in vivo at 20 mg/kg: 64%

## NC(=O)CN1CCN(Cc2nc3ccccc3n2CCC(=O)c2ccccc2)CC1 [75 0102]
[7]
  LD50: 1300 mg/kg
[2]
  inhibition in vivo at 10 mg/kg: 74%
[8]; 25 mg/kg/i.d.
  Diminution of contractions of the jejunum for more than an hour: 80%
[3]; intraduodenal
  inhibition in vivo at 10 mg/kg: 91%
[4]; po, 10 mg/kg/p.o., read-out: Percentage reduction of stress ulcers
  inhibition in vivo at 10 mg/kg: 100%

## C[N+]1(C)CCC(=C(c2ccccc2)c2ccccc2)CC1 [Diphemanil, diphemanil (methylsulfate), reference compound]
[7]
  LD50: 317 mg/kg
[8]; 20 mg/kg/i.d.
  Diminution of contractions of the jejunum of a rabbit: 70%
[3]; intraduodenal, 50 mg/kg/i.d.
  inhibition in vivo at 50 mg/kg: 52%
[4]; po, 100 mg/kg/p.o., ratio equal to 315, read-out: Percentage reduction of stress ulcers
  inhibition in vivo at 100 mg/kg: 91%
